Paper PMC2697495 (The Journal of pharmacy and pharmacology, 2008)
Marks after values point to notes of the source that are not given here.

Tests used:
[1] = test system: pooled human liver microsomes (pHLMs); experiment: Estradiol-3 glucuronidation by pHLMs; assay type: biochemical; conditions: for Estradiol-3 glucuronidation, % of the control activity (measured at 0 mM): pHLM, 100 μM estradiol, n=3
HLMs = conditions: 5 mM saccharolactone, ref Alkharfy & Frye 2001; cited from earlier work
[2] = test system: pooled human liver microsomes (pHLMs); experiment: Salicylic acid; assay type: biochemical; conditions: pHLM, 5 mM salicylic acid, phenol glucuronide, n=3
[3] = Effect of saccharolactone on pH of 50 mM potassium phosphate incubation buffer; assay type: physicochemical
[4] = test system: endogenous β-glucuronidase, insect cell expressed UGT2B7; conditions: recombinant UGT2B7 preparation; 10 mM saccharolactone
rat liver microsomes = conditions: 4 mM saccharolactone, ref Brunelle & Verbeeck 1993; cited from earlier work
UGT2B7 [5] = molecular target: T1, UGT2B7 (Homo sapiens, UniProt P16662); experiment: Codeine glucuronidation by recombinant UGT2B7; assay type: biochemical; conditions: 1 mM codeine, n=3
T1 sequence (P16662 24-529): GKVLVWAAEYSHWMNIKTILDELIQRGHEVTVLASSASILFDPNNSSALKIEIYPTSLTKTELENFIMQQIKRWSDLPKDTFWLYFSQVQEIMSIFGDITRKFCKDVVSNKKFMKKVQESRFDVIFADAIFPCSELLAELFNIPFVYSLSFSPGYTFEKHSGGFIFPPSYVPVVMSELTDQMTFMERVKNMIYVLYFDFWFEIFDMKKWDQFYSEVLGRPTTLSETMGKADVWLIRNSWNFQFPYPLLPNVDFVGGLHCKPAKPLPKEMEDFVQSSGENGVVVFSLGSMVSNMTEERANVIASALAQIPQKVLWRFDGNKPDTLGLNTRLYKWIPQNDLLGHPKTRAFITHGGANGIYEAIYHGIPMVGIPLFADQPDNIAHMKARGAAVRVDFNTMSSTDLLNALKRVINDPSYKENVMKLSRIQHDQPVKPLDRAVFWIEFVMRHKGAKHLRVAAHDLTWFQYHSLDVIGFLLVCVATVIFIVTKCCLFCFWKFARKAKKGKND

UGT2B7 [6] = molecular target: T1, UGT2B7; experiment: AZT glucuronidation by recombinant UGT2B7; assay type: biochemical; conditions: 500 μM AZT, n=3
[7] = test system: pooled human liver microsomes (pHLMs); experiment: Trifluoperazine glucuronidation by pHLMs; assay type: biochemical; conditions: pHLM, 200 μM trifluoperazine, n=3
[8] = test system: pooled human liver microsomes (pHLMs); experiment: e-4-hydroxy-tamoxifen glucuronidation by pHLMs; assay type: biochemical; conditions: 20 mM saccharolactone, pH-adjusted to 7.5
UGT1A6 (HEK293) = molecular target: T2, UGT1A6 (HEK293) (Homo sapiens, UniProt P19224); experiment: 5-HT glucuronidation by recombinant UGT1A6; assay type: biochemical; conditions: for 5-HT glucuronidation, % of the control activity (measured at 0 mM): UGT1A6 (HEK293), 4 mM 5-HT, n=3
T2 sequence (P19224 27-532): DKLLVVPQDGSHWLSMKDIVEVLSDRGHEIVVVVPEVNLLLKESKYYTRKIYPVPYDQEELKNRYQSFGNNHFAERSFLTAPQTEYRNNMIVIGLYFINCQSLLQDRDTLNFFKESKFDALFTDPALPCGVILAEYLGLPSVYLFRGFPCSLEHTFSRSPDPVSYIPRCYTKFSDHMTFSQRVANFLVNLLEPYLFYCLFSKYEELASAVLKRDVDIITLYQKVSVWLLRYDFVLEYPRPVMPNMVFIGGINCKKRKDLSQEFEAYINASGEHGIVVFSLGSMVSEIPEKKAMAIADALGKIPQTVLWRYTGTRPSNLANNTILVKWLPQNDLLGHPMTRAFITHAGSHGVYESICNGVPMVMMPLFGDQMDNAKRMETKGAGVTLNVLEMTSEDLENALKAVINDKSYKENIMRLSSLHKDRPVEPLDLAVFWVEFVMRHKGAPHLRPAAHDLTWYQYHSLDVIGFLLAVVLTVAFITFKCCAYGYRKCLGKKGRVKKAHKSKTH

[9] = test system: pooled human liver microsomes (pHLMs); experiment: 5-HT glucuronidation by pooled human liver microsomes; assay type: biochemical; conditions: pHLM, 4 mM 5-HT, n=3
UGT2B15 = UGT2B15 (Homo sapiens, UniProt P54855); experiment: e-4-hydroxy-tamoxifen glucuronidation by insect cell-expressed UGT2B15; assay type: biochemical; conditions: 20 mM saccharolactone, pH-adjusted to 7.5
Chain of UGT2B15 (P54855 24-530): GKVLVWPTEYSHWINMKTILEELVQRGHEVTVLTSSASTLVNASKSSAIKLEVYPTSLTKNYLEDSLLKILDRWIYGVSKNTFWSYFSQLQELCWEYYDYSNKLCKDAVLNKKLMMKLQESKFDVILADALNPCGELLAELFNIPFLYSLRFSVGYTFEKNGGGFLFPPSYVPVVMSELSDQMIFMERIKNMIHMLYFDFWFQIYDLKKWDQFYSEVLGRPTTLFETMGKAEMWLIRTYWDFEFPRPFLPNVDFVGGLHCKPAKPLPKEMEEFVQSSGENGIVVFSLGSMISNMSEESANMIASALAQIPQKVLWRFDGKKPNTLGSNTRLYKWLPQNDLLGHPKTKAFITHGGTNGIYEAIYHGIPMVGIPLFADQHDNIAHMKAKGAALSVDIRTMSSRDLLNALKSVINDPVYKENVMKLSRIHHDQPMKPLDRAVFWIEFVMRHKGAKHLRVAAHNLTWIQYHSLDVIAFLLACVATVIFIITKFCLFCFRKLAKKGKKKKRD

UGT1A4 = molecular target: T3, UGT1A4 (Homo sapiens, UniProt P22310); experiment: Trifluoperazine glucuronidation by recombinant UGT1A4; assay type: biochemical; conditions: for Trifluoperazine glucuronidation, % of the control activity (measured at 0 mM): UGT1A4, 200 μM trifluoperazine, n=3
T3 sequence (P22310 29-534): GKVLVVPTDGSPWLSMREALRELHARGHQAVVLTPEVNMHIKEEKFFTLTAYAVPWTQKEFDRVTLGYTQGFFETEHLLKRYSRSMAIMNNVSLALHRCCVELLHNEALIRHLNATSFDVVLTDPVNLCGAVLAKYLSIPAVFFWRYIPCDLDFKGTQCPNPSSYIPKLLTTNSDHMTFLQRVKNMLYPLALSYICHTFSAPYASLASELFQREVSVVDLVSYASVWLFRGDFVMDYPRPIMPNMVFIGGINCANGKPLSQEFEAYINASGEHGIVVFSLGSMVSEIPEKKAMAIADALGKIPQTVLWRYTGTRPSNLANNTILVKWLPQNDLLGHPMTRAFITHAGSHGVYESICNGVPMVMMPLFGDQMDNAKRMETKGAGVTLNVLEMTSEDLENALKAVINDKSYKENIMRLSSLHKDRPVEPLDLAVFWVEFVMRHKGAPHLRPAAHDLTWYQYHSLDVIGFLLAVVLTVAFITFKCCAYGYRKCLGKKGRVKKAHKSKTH

[10] = test system: endogenous β-glucuronidase, insect cell expressed UGT1A1; conditions: recombinant UGT1A1 preparation; 10 mM saccharolactone

O=C(O)[C@@H](O)[C@H]1OC(=O)[C@H](O)[C@H]1O [saccharolactone, D-saccharic acid 1,4-lactone]
Estradiol-3 glucuronidation, % of the control activity (measured at 0 mM) ([1]; 1 mM saccharolactone): 68±5%
Estradiol-3 glucuronidation, % of the control activity (measured at 0 mM) ([1]; 2 mM saccharolactone): 84±1%
Estradiol-3 glucuronidation, % of the control activity (measured at 0 mM) ([1]; 5 mM saccharolactone): 76±9 ^a %
Estradiol-3 glucuronidation, % of the control activity (measured at 0 mM) ([1]; 10 mM saccharolactone): 67±5 ^a %
Estradiol-3 glucuronidation, % of the control activity (measured at 0 mM) ([1]; 20 mM saccharolactone): 67±7 ^a %
decrease in estradiol-3 glucuronidation activity ([1]; pHLMs, 20 mM saccharolactone, p<0.05): 33%
decrease of acetaminophen glucuronidation (HLMs): 45%
Salicylic Acid glucuronidation, % of the control activity (measured at 0 mM) ([2]; 1 mM saccharolactone): 101±5%
Salicylic Acid glucuronidation, % of the control activity (measured at 0 mM) ([2]; 2 mM saccharolactone): 111±5%
Salicylic Acid glucuronidation, % of the control activity (measured at 0 mM) ([2]; 5 mM saccharolactone): 83±3 ^a %
Salicylic Acid glucuronidation, % of the control activity (measured at 0 mM) ([2]; 10 mM saccharolactone): 90±1%
Salicylic Acid glucuronidation, % of the control activity (measured at 0 mM) ([2]; 20 mM saccharolactone): 85±9 ^a %
pH of incubation buffer after adding saccharolactone ([3]; 20 mM saccharolactone in 50 mM potassium phosphate, initially pH 7.5): 6.8
effect on pH of incubation buffer ([3]; saccharolactone up to 5 mM in 50 mM potassium phosphate pH 7.5): minimal effect on pH
inhibition of estradiol glucuronide hydrolysis [4]: effective in the inhibition of hydrolysis
change in diflunisal phenol glucuronide formation (rat liver microsomes): no change
increase of diflunisal acyl glucuronide formation (Vmax) (rat liver microsomes): 2 fold
Codeine glucuronidation, % of the control activity (measured at 0 mM) (UGT2B7 [5]; 5 mM saccharolactone): 90±7%
Codeine glucuronidation, % of the control activity (measured at 0 mM) (UGT2B7 [5]; 20 mM saccharolactone): 90±3%
AZT glucuronidation, % of the control activity (measured at 0 mM) (UGT2B7 [6]; 5 mM saccharolactone): 102±2%
AZT glucuronidation, % of the control activity (measured at 0 mM) (UGT2B7 [6]; 20 mM saccharolactone): 102±8%
Trifluoperazine glucuronidation, % of the control activity (measured at 0 mM) ([7]; 1 mM saccharolactone): 98±5%
Trifluoperazine glucuronidation, % of the control activity (measured at 0 mM) ([7]; 2 mM saccharolactone): 101±9%
Trifluoperazine glucuronidation, % of the control activity (measured at 0 mM) ([7]; 5 mM saccharolactone): 95±3%
Trifluoperazine glucuronidation, % of the control activity (measured at 0 mM) ([7]; 10 mM saccharolactone): 93±4%
Trifluoperazine glucuronidation, % of the control activity (measured at 0 mM) ([7]; 20 mM saccharolactone): 97±5%
decrease in e-4-hydroxy-tamoxifen glucuronidation activity [8]: 17%
5-HT glucuronidation, % of the control activity (measured at 0 mM) (UGT1A6 (HEK293); 5 mM saccharolactone): 91±6%
5-HT glucuronidation, % of the control activity (measured at 0 mM) (UGT1A6 (HEK293); 20 mM saccharolactone): 90±7%
effect on 5-hydroxytryptamine glucuronidation (UGT1A6 (HEK293); UGT1A6 expressed in mammalian (HEK293) cells, saccharolactone up to 20 mM): no effect
5-HT glucuronidation, % of the control activity (measured at 0 mM) ([9]; 1 mM saccharolactone (pH-adjusted)): 104±8%
5-HT glucuronidation, % of the control activity (measured at 0 mM) ([9]; 2 mM saccharolactone (pH-adjusted)): 93±5%
5-HT glucuronidation, % of the control activity (measured at 0 mM) ([9]; 5 mM saccharolactone (pH-adjusted)): 86±4 ^a %
5-HT glucuronidation, % of the control activity (measured at 0 mM) ([9]; 10 mM saccharolactone (pH-adjusted)): 87±4 ^a %
5-HT glucuronidation, % of the control activity (measured at 0 mM) ([9]; 20 mM saccharolactone (pH-adjusted)): 63±5 ^a %
decrease in e-4-hydroxy-tamoxifen glucuronidation activity (UGT2B15): 25%
Trifluoperazine glucuronidation, % of the control activity (measured at 0 mM) (UGT1A4; 5 mM saccharolactone): 90±4%
Trifluoperazine glucuronidation, % of the control activity (measured at 0 mM) (UGT1A4; 20 mM saccharolactone): 82±5 ^a %
inhibition at 20 mM (UGT1A4; human, pH 7.5, probe trifluoperazine): 18%
inhibition of estradiol glucuronide hydrolysis [10]: effective in the inhibition of hydrolysis
